These results are taken from patent publication US5663205A, “Pharmaceutical composition for use in glaucoma treatment” (Senju Pharmaceutical Co. Ltd., priority 1992, dated 1997).

Series [1] concerns cornea. The series is described as follows: Test Example 7 (2)(d): observation on fluorescein-dyed spots of the cornea. It is filed as in vivo, Japanese white rabbits. Particulars: 1% and 0.5% ophthalmic solutions, 28 days. As to the method:
(2) Ocular local toxicity test in rabbits of 1.0% and 0.5% ophthalmic solutions of amosulalol hydrochloride by consecutive instillation for 28 days: With 15 male Japanese white rabbits divided into 3 groups each consisting of 5 rabbits, 1.0% and 0.5% ophthalmic solutions of amosulalol hydrochloride as well as physiological saline as a control were applied in one drop (0.05 ml) per time to the right eye of each rabbit alone, four times a day at a regular interval of 2.5 hours, for 28 days consecutively with the left eye being left untreated. (d) Observation on fluorescein-dyed spots of the cornea: Before instillation of 1.0% and 0.5% ophthalmic solutions of amosulalol hydrochloride as well as on the day (Day 1) of initiating the instillation and on the 2nd, 4th, 7th, 14th, 21st, 28th days after initiating the instillation but each time after completion of such instillation, and on the morning of the last instillation (29th day), 10 μl of 0.1% aqueous fluorescein solution was applied topically to the eyes of each test animal, and observation was performed on the abrasion of the corneal epithelial cells with a photo-slit lamp.

Series [2] concerns pupil diameter. The series is described as follows: Test Example 2 (2): pupil diameter, pigmented rabbits. It is filed as in vivo, pigmented rabbits (Dutch belted rabbits). Particulars: 0.5% aqueous solution (FIG. 4), 0.5 to 6 hours. As to the method:
Forty (40) male pigmented rabbits (Dutch belted rabbits) weighing about 2 kg, after having been confirmed to be free from ocular abnormalities, were bred in a breeding room maintained at a temperature of 24± 4° C. and at a relative humidity of 55± 15%, while they were fed solid food (Labo RG-RO, manufactured by Nihon Nohsan Kogyo K.K.) at a daily rate of 100 g per rabbit and allowed free access to tap water as drinking water. As a test drug, amosulalol hydrochloride was processed into 0.05%, 0.5% and 1.0% aqueous solutions which were used in the test, and 0.5% timolol maleate ophthalmic solution [Timoptol (registered trademark): Ban-yu Pharmaceutical Co.] and physiological saline were used as a positive control drug and a control substance, respectively. (2) Measurement of pupil diameter: With each of the rabbits as used under the above item (1), pupil diameter was measured for both eyes using a micrometer caliper, before instillation and 0.5, 1, 2, 3, 4, and 6 hours after topical application of the respective test drugs and physiological saline, respectively. […] The signs "a" and "c" designate physiological saline, 0.5% aqueous solution of amosulalol hydrochloride, respectively.

Series [3] has as its system conjunctiva. The series is described as follows: Test Example 2: conjunctival hyperemia, pigmented rabbits. It is filed as in vivo, pigmented rabbits (Dutch belted rabbits). Particulars: concentrations of less than 0.5%.
For series [4], the system named is α-adrenergic. The note with it: cited from earlier work.

Take `COc1ccccc1OCCNCC(O)c1ccc(C)c(S(N)(=O)=O)c1.Cl` (stereo not shown) [amosulalol hydrochloride, 5-[1-hydroxy-2-[2-(2-methoxyphenoxy)ethylamino]ethyl]-2-methylbenzenesulfonamide hydrochloride]: the “observation of fluorescein-dyed spots in the cornea” value in series [1] is “no abnormalities”. Moreover, the “change in pupil diameter” value in series [2] is “no significant change in the pupil diameter”. Moreover, the conjunctival hyperemia result in series [3] is “merely a slight degree of conjunctival hyperemia”. The α-adrenergic blocking activity result in series [4] is “exhibit both α-adrenergic and β-adrenergic blocking activities”.
